Among the data in US20230203060A1 (GENFLEET THERAPEUTICS (SHANGHAI) INC., priority 2020, published 2023) are IC50 values, retold here.

One test has as its target T1, KRAS G12C (Homo sapiens, UniProt P01116, G12C).
T1 construct: purchased Reactionbiology
The experiment in a line: KRAS G12C NEA-HTRF experiment (SOS1-catalyzed displacement of GDP by GTP). Type of test: biochemical. Summed up: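 His-tagged KRAS G12C preloaded with DY647-GDP was preincubated 15 min at 20 °C with compound, then exchanged with SOS1 (0.2 μM working solution) and GTP (200 μM working solution) for 2 h at 20 °C in the dark. HTRF 665/615 nm ratio with anti-His-Tb was normalised to T0 and no-compound controls; IC50 by four-parameter fit.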
For orientation: In TR-FRET formats the signal depends on donor and acceptor labels being close together.

In test [1] the test system is phosphorylated ERK downstream of KRAS G12C in MIA PaCa2 cells. The experiment in a line: Cell p-ERK detection experiment (HTRF) in MIA PaCa2. Type of test: cell-based, human. The following applies: Homo sapiens, MIA PaCa-2, 2 h, MIA PaCa2 cells, 2 hours with compound, Advance ERK phospho-T202/Y204 HTRF kit; read-out: p-ERK IC50. Summed up: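 KRAS G12C-mutant MIA PaCa2 cells (2.5E4 per well, overnight) exposed 2 h to a 3.16-fold compound dilution series at 0.1% DMSO. Lysates probed 4 h with HTRF antibodies to ERK phospho-T202/Y204; inhibition versus DMSO control and blank, IC50 by four-parameter fit.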

Broadly, the IC50 is the concentration that gives 50% inhibition.

T1 sequence (P01116 1-188 isoform P01116-2 G12C): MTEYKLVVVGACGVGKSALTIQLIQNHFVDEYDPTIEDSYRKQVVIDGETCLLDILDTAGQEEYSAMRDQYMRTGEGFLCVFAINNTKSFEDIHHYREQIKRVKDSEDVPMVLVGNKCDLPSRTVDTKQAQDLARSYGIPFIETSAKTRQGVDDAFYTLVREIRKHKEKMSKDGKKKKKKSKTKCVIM

In the case of `C=CC(=O)N1CCN2C(=O)c3c(N4C[C@@H](N5CCN(C)CC5)CC4(C)C)nc(-c4ccccc4F)c(F)c3OC[C@H]2C1` (single isomer, unassigned) [Z474-1], the IC50 on KRAS G12C is 89 nM; in test [1], 64 nM.

Regarding `C=CC(=O)N1CCN2C(=O)c3c(N4C[C@H](N(C)C)CC4(C)C)nc(-c4c(F)ccc(F)c4O)c(Cl)c3OC[C@H]2C1` (single isomer, unassigned) [Z475-2], the results for the concentration for half-maximal inhibition (IC50) (on KRAS G12C; in test [1]) were 79.3 nM and 107 nM, respectively.

Consider `C=CC(=O)N1CCN2C(=O)c3c(N4C[C@@H](N(C)CC(F)(F)F)CC4(C)C)nc(-c4ccccc4F)c(Cl)c3OC[C@H]2C1` (single isomer, unassigned) [Z491], for which the figures for the IC50 (at KRAS G12C; in test [1]) were 15 nM and 27 nM, respectively.

As for `C=CC(=O)N1CCN2C(=O)c3c(N4C[C@H](N(C)CC(F)(F)F)CC4(C)C)nc(-c4ccccc4F)c(Cl)c3OC[C@H]2C1` (single isomer, unassigned) [Z493], the concentration for half-maximal inhibition (IC50) at KRAS G12C stood at 125 nM; in test [1], 433 nM.

Consider `C=CC(=O)N1CCN2C(=O)c3c(N4C[C@H](N5CC(F)(F)C5)CC4(C)C)nc(-c4ccccc4F)c(Cl)c3OC[C@H]2C1` (single isomer, unassigned) [Z525-1], for which the IC50 on KRAS G12C worked out at 365 nM; in test [1], 1280 nM.

As to `C=CC(=O)N1CCN2C(=O)c3c(N4C[C@@H](N5CC(F)(F)C5)CC4(C)C)nc(-c4ccccc4F)c(Cl)c3OC[C@H]2C1` (single isomer, unassigned) [Z525-2], the concentration for half-maximal inhibition (IC50) on KRAS G12C turned out to be 38.5 nM; in test [1] it was 226 nM.

With `C=CC(=O)N1CCN2C(=O)c3c(N4C[C@H](N5CC(C(F)(F)F)C5)CC4(C)C)nc(-c4ccccc4F)c(Cl)c3OC[C@H]2C1` (single isomer, unassigned) [Z608-1], the 50% inhibitory concentration (IC50) on KRAS G12C was found to be 610 nM; in test [1] it was 1220 nM.

`C=CC(=O)N1CCN2C(=O)c3c(N4C[C@@H](N5CCN(C)CC5)CC4(C)C)nc(-c4c(F)cccc4Cl)c(Cl)c3OC[C@H]2C1` (single isomer, unassigned) [Z635-1]: the figures for the IC50 (on KRAS G12C; in test [1]) were 22.7 nM and 14 nM, respectively.

With `C=CC(=O)N1CCN2C(=O)c3c(N4C[C@H](N5CCN(C)CC5)CC4(C)C)nc(-c4c(F)cccc4Cl)c(Cl)c3OC[C@H]2C1` (single isomer, unassigned) [Z635-2], the half-inhibitory concentration (IC50) came out at 113 nM on KRAS G12C and 55 nM in test [1].

`C=CC(=O)N1CCN2C(=O)c3c(N4C[C@H](N5CC(C#N)C5)CC4(C)C)nc(-c4ccccc4F)c(Cl)c3OC[C@H]2C1` (single isomer, unassigned) [Z637-1]: the 50% inhibitory concentration (IC50) on KRAS G12C was found to be 343 nM; in test [1], 1120 nM.

Regarding `C=CC(=O)N1CCN2C(=O)c3c(N4C[C@@H](N5CC(C#N)C5)CC4(C)C)nc(-c4ccccc4F)c(Cl)c3OC[C@H]2C1` (single isomer, unassigned) [Z637-2], the IC50 on KRAS G12C amounted to 23.8 nM; in test [1] it was 68 nM.

Take `C=CC(=O)N1CCN2C(=O)c3c(N4C[C@@H](N(C)C)CC4(C)C)nc(-c4ccccc4)c(Cl)c3OC[C@H]2C1` (single isomer, unassigned) [Z655-1]: the half-inhibitory concentration (IC50) at KRAS G12C came out at 406 nM; in test [1], 461 nM.

On to `C=CC(=O)N1CCN2C(=O)c3c(N4C[C@@H](N(C)CCO)CC4(C)C)nc(-c4ccccc4F)c(Cl)c3OC[C@H]2C1` (single isomer, unassigned) [Z658-1], for which the half-maximal inhibitory concentration (IC50) at KRAS G12C is 23.8 nM; in test [1], 31 nM.

On to `C=CC(=O)N1CCN2C(=O)c3c(N4C[C@H](N(C)CCO)CC4(C)C)nc(-c4ccccc4F)c(Cl)c3OC[C@H]2C1` (single isomer, unassigned) [Z658-2], for which the IC50 at KRAS G12C was 142 nM; in test [1], 180 nM.

`C=CC(=O)N1CCN2C(=O)c3c(N4C[C@@H](N(C)CC(F)F)CC4(C)C)nc(-c4ccccc4F)c(Cl)c3OC[C@H]2C1` (single isomer, unassigned) [Z659-1]: the values for the concentration for half-maximal inhibition (IC50) (on KRAS G12C; in test [1]) were 77.2 nM and 249 nM, respectively.

For the molecule `C=CC(=O)N1CCN2C(=O)c3c(N4CC(N(C)CC(F)F)CC4(C)C)nc(-c4ccccc4F)c(Cl)c3OCC2C1` (single isomer, unassigned) [Z659-2], the IC50 at KRAS G12C turned out to be 9.3 nM; in test [1], 22 nM.

As for `C=CC(=O)N1CCN2C(=O)c3c(N4C[C@@H](N(C)CCF)CC4(C)C)nc(-c4ccccc4F)c(Cl)c3OC[C@H]2C1` (single isomer, unassigned) [Z660-1], the 50% inhibitory concentration (IC50) at KRAS G12C turned out to be 11.3 nM; in test [1] it was 19 nM.

Consider `C=CC(=O)N1CCN2C(=O)c3c(N4C[C@@H](NC)CC4(C)C)nc(-c4ccccc4F)c(Cl)c3OC[C@H]2C1` (single isomer, unassigned) [Z661-1], for which the concentration for half-maximal inhibition (IC50) stood at 33.5 nM on KRAS G12C and 57 nM in test [1].

As for `C=CC(=O)N1CCN2C(=O)c3c(N4C[C@@H](NCC(F)(F)F)CC4(C)C)nc(-c4ccccc4F)c(Cl)c3OC[C@H]2C1` (single isomer, unassigned) [Z662-1], the IC50 at KRAS G12C was found to be 23.4 nM; in test [1], 32.6 nM.

`C=CC(=O)N1CCN2C(=O)c3c(N4CCOC[C@@H]4C)nc(-c4c(O)cccc4F)c(Cl)c3OC[C@H]2C1` [Z32]: the 50% inhibitory concentration (IC50) on KRAS G12C is 142 nM; in test [1], 80 nM.

For the molecule `C=CC(=O)N1CCN2C(=O)c3c(N4CCOC(C)(C)C4)nc(-c4c(O)cccc4F)c(Cl)c3OC[C@H]2C1` [Z37, (6aR)-8-acryloyl-4-chloro-1-(2,2-dimethylmorpholino)-3-(2-fluoro-6-hydroxyphenyl)-6,6a,7,8,9,10-hexahydro-12H-pyrazino[2,1-c]pyrido[3,4-f][1,4]oxazepin-12-one], the IC50 is 167 nM at KRAS G12C and 145 nM in test [1].

Consider `C=CC(=O)N1CCN2C(=O)c3c(N4CCC[C@@H]4C)nc(-c4c(O)cccc4F)c(Cl)c3OC[C@H]2C1` [Z49, (6aR)-8-acryloyl-1-((S)-2-methylpyrrolidin-1-yl)-4-chloro-3-(2-fluoro-6-hydroxyphenyl)-6,6a,7,8,9,10-hexahydro-12H-pyrazino[2,1-c]pyrido[3,4-f][1,4]oxazepin-12-one], for which the IC50 is 66 nM on KRAS G12C and 62 nM in test [1].

On to `C=CC(=O)N1CCN2C(=O)c3c(N4CC(O)CC4(C)C)nc(-c4c(O)cccc4F)c(Cl)c3OC[C@H]2C1` (stereo partly drawn) [Z50, (6aR)-8-amyloyl-4-chloro-3-(2-fluoro-6-hydroxyphenyl)-1-(4-hydroxy-2,2-dimethylpyrrolidin-1-yl)-6,6a,7,8,9,10-hexahydro-12H-pyrazino[2,1-c]pyrido[3,4-f][1,4]oxazepin-12-one], for which the IC50 at KRAS G12C stood at 21 nM; in test [1] it was 28 nM.

As for `C=CC(=O)N1CCN2C(=O)c3c(N4CCN(C)C[C@@H]4C)nc(-c4c(O)cccc4F)c(Cl)c3OC[C@H]2C1` [Z51, (6aR)-8-acryloyl-4-chloro-1-((S)-2,4-dimethylpiperazin-1-yl)-3-(2-fluoro-6-hydroxyphenyl)-6,6a,7,8,9,10-hexahydro-12H-pyrazino[2,1-c]pyrido[3,4-f][1,4]oxazepin-12-one], the IC50 on KRAS G12C came to 142 nM; in test [1] it was 73 nM.

In the case of `C=CC(=O)N1CCN2C(=O)c3c(N4CCCC45CC5)nc(-c4c(O)cccc4F)c(Cl)c3OC[C@H]2C1` [Z56, (6aR)-8-acryloyl-4-chloro-3-(2-fluoro-6-hydroxyphenyl)-1-(4-azaspiro[2.4]heptan-4-yl)-6,6a,7,8,9,10-hexahydro-12H-pyrazino[2,1-c]pyrido[3,4-f][1,4]oxazepin-12-one], the concentration for half-maximal inhibition (IC50) at KRAS G12C came to 85 nM; in test [1] it was 129 nM.

Turning to `C=CC(=O)N1CCN2C(=O)c3c(N4CCN(C)C[C@@H]4C)nc(-c4ccccc4F)c(Cl)c3OC[C@H]2C1` [Z407-1, (R)-8-acryloyl-4-chloro-1-((S)-2,4-dimethylpiperazin-1-yl)-3-(2-fluorophenyl)-6,6a,7,8,9,10-hexahydro-12H-pyrazino[2,1-c]pyrido[3,4-f][1,4]oxazepin-12-one], the half-inhibitory concentration (IC50) was 262 nM on KRAS G12C and 144 nM in test [1].

As for `C=CC(=O)N1CCN2C(=O)c3c(N4CC(O)CC4(C)C)nc(-c4ccccc4Cl)c(F)c3OC[C@H]2C1` (stereo partly drawn) [Z414-1, (6aR)-8-acryloyl-3-(2-chlorophenyl)-4-fluoro-1-(4-hydroxy-2,2-dimethylpyrrolidin-1-yl)-6,6a,7,8,9,10-hexahydro-12H-pyrazino[2,1-c]pyrido[3,4-f][1,4]oxazepin-12-one], the IC50 on KRAS G12C turned out to be 86.6 nM; in test [1] it was 103 nM.

Regarding `C=CC(=O)N1CCN2C(=O)c3c(N4CCN(C)C[C@@H]4C)nc(-c4c(F)cccc4OC)c(F)c3OC[C@H]2C1` [Z451, (6aR)-8-acryloyl-1-((S)-2,4-dimethylpiperazin-1-yl)-4-fluoro-3-(2-fluoro-6-methoxyphenyl)-6,6 a,7,8,9,10-hexahydro-12H-pyrazino[2,1-c]pyrido[3,4-f][1,4]oxazepin-12 (6 aH)-one], the concentration for half-maximal inhibition (IC50) was found to be 3000 nM on KRAS G12C and 1480 nM in test [1].

With `C=CC(=O)N1CCN2C(=O)c3c(N4CCN(C)C[C@@H]4C)nc(-c4c(O)cccc4Cl)c(Cl)c3OC[C@H]2C1` [Z452, (6aR)-8-acryloyl-4-chloro-3-(2-chloro-6-hydroxyphenyl)-1-((S)-2,4-dimethylpiperazin-1-yl)-6,6a,7,8,9,10-hexahydro-12H-pyrazino[2,1-c]pyrido[3,4-f][1,4]oxazepin-12-one], the IC50 stood at 46.9 nM on KRAS G12C and 34 nM in test [1].

For the molecule `C=CC(=O)N1CCN2C(=O)c3c(N4C[C@@H](N(C)C)CC4(C)C)nc(-c4ccccc4F)c(Cl)c3OC[C@H]2C1` [Z453-1, (R)-8-acryloyl-4-chloro-1-((S)-4-(dimethylamino)-2,2-dimethylpyrrolidin-1-yl)-3-(2-fluorophenyl)-6,6a,7,8,9,10-hexahydro-12H-pyrazino[2,1-c]pyrido[3,4-f][1,4]oxazepin-12-one], the half-maximal inhibitory concentration (IC50) at KRAS G12C was found to be 43.6 nM; in test [1], 116 nM.
